Source: publication PMC9760604, “Strand 1A variant in neuroserpin shows increased aggregation and no loss of inhibition: implication in ameliorating polymerization to retain activity” (Bioscience Reports, 2022)
Residue numbers refer to the chain shown, from its start.

How the values were obtained:
WT NS (neuroserpin) [1] = biological target: T1, WT NS (neuroserpin) (Homo sapiens, UniProt Q99574, H138C); experiment: Bis-ANS fluorescence, excitation […] nm; format: binding; details: 2 uM protein, Bis-ANS 1:5 ratio (10 uM), 25 °C, surface hydrophobicity probe
T1 construct: gene SERPINI1; N-terminal 6-His tag, pET28b, expressed in E. coli BL21(DE3), monomeric
T1 sequence (Q99574 17-410 H138C): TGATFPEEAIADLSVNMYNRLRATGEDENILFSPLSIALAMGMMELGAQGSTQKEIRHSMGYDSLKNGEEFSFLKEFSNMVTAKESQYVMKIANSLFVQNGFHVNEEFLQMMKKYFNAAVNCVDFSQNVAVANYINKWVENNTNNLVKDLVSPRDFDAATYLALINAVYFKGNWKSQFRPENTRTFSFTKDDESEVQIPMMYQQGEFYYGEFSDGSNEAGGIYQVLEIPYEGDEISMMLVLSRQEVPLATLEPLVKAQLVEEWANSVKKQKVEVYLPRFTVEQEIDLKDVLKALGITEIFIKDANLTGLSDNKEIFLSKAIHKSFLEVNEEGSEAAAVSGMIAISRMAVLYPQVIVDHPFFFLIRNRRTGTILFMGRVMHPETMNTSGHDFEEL

WT NS (neuroserpin) [2] = biological target: T2, WT NS (neuroserpin) (Homo sapiens, UniProt Q99574, H138C/W154C); experiment: Bis-ANS fluorescence, excitation […] nm; format: binding; details: 2 uM protein, Bis-ANS 1:5 ratio (10 uM), 25 °C, surface hydrophobicity probe
T2 construct: gene SERPINI1; N-terminal 6-His tag, pET28b, expressed in E. coli BL21(DE3), monomeric
T2 sequence (Q99574 17-410 H138C/W154C): T1 sequence (Q99574 17-410 H138C) with W138C

## O=S(=O)(O)c1cccc2c(-c3ccc(Nc4ccccc4)c4c(S(=O)(=O)O)cccc34)ccc(Nc3ccccc3)c12 [Bis-ANS, 4,4-Bis-1-anilino naphthalene 8-sulfonate]
WT NS (neuroserpin) [1]
  Bis-ANS fluorescence, excitation 390 nm: More hydrophobic exposure was observed due to increase Bis-ANS fluorescence in the H138C variant
WT NS (neuroserpin) [2]
  Bis-ANS fluorescence, excitation 390 nm: The double variant showed a decreased fluoroscence emission intensity, and a very high surface hydrophobicity
